Laboratory results published in paper PMC10905675, “INX-315, a Selective CDK2 Inhibitor, Induces Cell Cycle Arrest and Senescence in Solid Tumors” (Cancer Discovery, 2023).

Columns and labels:
Experiment in all cases: SelectScreen ZLYTE
Assay type in all cases: biochemical
Conditions in all cases: INX-0315 at 100nM
[1] = target: T1, HIPK4 (Homo sapiens, UniProt Q8NE63)
T1 construct: purchased Thermo Fisher Scientific SelectScreen (plus Nanosyn / Reaction Biology for CDK/cyclin lines)
Method in brief: (§1)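 Activity and binding formats were run as established by the profiling service; INX-315 entered at one concentration (100 nmol/L, 1% DMSO) before titration over a 1 µmol/L–0.0495 nmol/L range in ten steps.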

[2] = target: T2, MST1R (RON) (Homo sapiens, UniProt Q04912)
T2 construct: purchased Thermo Fisher Scientific SelectScreen (plus Nanosyn / Reaction Biology for CDK/cyclin lines)
Method in brief: as §1

[3] = target: T3, EPHA5 (Homo sapiens, UniProt P54756)
T3 construct: purchased Thermo Fisher Scientific SelectScreen (plus Nanosyn / Reaction Biology for CDK/cyclin lines)
Method in brief: as §1

[4] = target: T4, RPS6KA4 (MSK2) (Homo sapiens, UniProt O75676)
T4 construct: purchased Thermo Fisher Scientific SelectScreen (plus Nanosyn / Reaction Biology for CDK/cyclin lines)
Method in brief: as §1

[5] = target: T5, CLK1 (Homo sapiens, UniProt P49759)
T5 construct: purchased Thermo Fisher Scientific SelectScreen (plus Nanosyn / Reaction Biology for CDK/cyclin lines)
Method in brief: as §1

[6] = target: T6, INSR (Homo sapiens, UniProt P06213)
T6 construct: purchased Thermo Fisher Scientific SelectScreen (plus Nanosyn / Reaction Biology for CDK/cyclin lines)
Method in brief: as §1

[7] = target: T7, MARK3 (Homo sapiens, UniProt P27448)
T7 construct: purchased Thermo Fisher Scientific SelectScreen (plus Nanosyn / Reaction Biology for CDK/cyclin lines)
Method in brief: as §1

[8] = target: T8, FER (Homo sapiens, UniProt P16591)
T8 construct: purchased Thermo Fisher Scientific SelectScreen (plus Nanosyn / Reaction Biology for CDK/cyclin lines)
Method in brief: as §1

[9] = target: T9, CSNK1G1 (CK1 gamma 1) (Homo sapiens, UniProt Q9HCP0)
T9 construct: purchased Thermo Fisher Scientific SelectScreen (plus Nanosyn / Reaction Biology for CDK/cyclin lines)
Method in brief: as §1

[10] = target: T10, CAMK1D (CaMKI delta) (Homo sapiens, UniProt Q8IU85)
T10 construct: purchased Thermo Fisher Scientific SelectScreen (plus Nanosyn / Reaction Biology for CDK/cyclin lines)
Method in brief: as §1

[11] = target: T11, CSF1R (FMS) (Homo sapiens, UniProt P07333)
T11 construct: purchased Thermo Fisher Scientific SelectScreen (plus Nanosyn / Reaction Biology for CDK/cyclin lines)
Method in brief: as §1

[12] = target: T12, GSK3A (GSK3 alpha) (Homo sapiens, UniProt P49840)
T12 construct: purchased Thermo Fisher Scientific SelectScreen (plus Nanosyn / Reaction Biology for CDK/cyclin lines)
Method in brief: as §1

[13] = target: T13, MAP3K19 (YSK4) (Homo sapiens, UniProt Q56UN5)
T13 construct: purchased Thermo Fisher Scientific SelectScreen (plus Nanosyn / Reaction Biology for CDK/cyclin lines)
Method in brief: as §1

[14] = target: T14, CAMK2B (CaMKII beta) (Homo sapiens, UniProt Q13554)
T14 construct: purchased Thermo Fisher Scientific SelectScreen (plus Nanosyn / Reaction Biology for CDK/cyclin lines)
Method in brief: as §1

[15] = target: T15, FLT1 (VEGFR1) (Homo sapiens, UniProt P17948)
T15 construct: purchased Thermo Fisher Scientific SelectScreen (plus Nanosyn / Reaction Biology for CDK/cyclin lines)
Method in brief: as §1

[16] = target: T16, KIT (Homo sapiens, UniProt P10721)
T16 construct: purchased Thermo Fisher Scientific SelectScreen (plus Nanosyn / Reaction Biology for CDK/cyclin lines)
Method in brief: as §1

[17] = target: T17, MAP4K2 (GCK) (Homo sapiens, UniProt Q12851)
T17 construct: purchased Thermo Fisher Scientific SelectScreen (plus Nanosyn / Reaction Biology for CDK/cyclin lines)
Method in brief: as §1

[18] = target: T18, SRC (Homo sapiens, UniProt P12931)
T18 construct: purchased Thermo Fisher Scientific SelectScreen (plus Nanosyn / Reaction Biology for CDK/cyclin lines)
Method in brief: as §1

[19] = target: T19, ABL1 F317I (Homo sapiens, UniProt P00519, F317I)
T19 construct: purchased Thermo Fisher Scientific SelectScreen (plus Nanosyn / Reaction Biology for CDK/cyclin lines)
Method in brief: as §1

[20] = target: T20, PRKD1 (PKC mu) (Homo sapiens, UniProt Q15139)
T20 construct: purchased Thermo Fisher Scientific SelectScreen (plus Nanosyn / Reaction Biology for CDK/cyclin lines)
Method in brief: as §1

[21] = target: T21, PRKG2 (PKG2) (Homo sapiens, UniProt Q13237)
T21 construct: purchased Thermo Fisher Scientific SelectScreen (plus Nanosyn / Reaction Biology for CDK/cyclin lines)
Method in brief: as §1

[22] = target: T22, AURKA (Aurora A) (Homo sapiens, UniProt O14965)
T22 construct: purchased Thermo Fisher Scientific SelectScreen (plus Nanosyn / Reaction Biology for CDK/cyclin lines)
Method in brief: as §1

[23] = target: T23, LYN A (Homo sapiens, UniProt P07948)
T23 construct: purchased Thermo Fisher Scientific SelectScreen (plus Nanosyn / Reaction Biology for CDK/cyclin lines)
Method in brief: as §1

[24] = target: T24, EGFR (ErbB1) L858R (Homo sapiens, UniProt P00533, L858R)
T24 construct: purchased Thermo Fisher Scientific SelectScreen (plus Nanosyn / Reaction Biology for CDK/cyclin lines)
Method in brief: as §1

[25] = target: T25, CDK17/cyclin Y (Homo sapiens, UniProt Q00537)
T25 construct: purchased Thermo Fisher Scientific SelectScreen (plus Nanosyn / Reaction Biology for CDK/cyclin lines)
Method in brief: as §1

[26] = target: T26, GRK5 (Homo sapiens, UniProt P34947)
T26 construct: purchased Thermo Fisher Scientific SelectScreen (plus Nanosyn / Reaction Biology for CDK/cyclin lines)
Method in brief: as §1

[27] = target: T27, FGFR2 (Homo sapiens, UniProt P21802)
T27 construct: purchased Thermo Fisher Scientific SelectScreen (plus Nanosyn / Reaction Biology for CDK/cyclin lines)
Method in brief: as §1

[28] = target: T28, HCK (Homo sapiens, UniProt P08631)
T28 construct: purchased Thermo Fisher Scientific SelectScreen (plus Nanosyn / Reaction Biology for CDK/cyclin lines)
Method in brief: as §1

[29] = target: T29, MAP2K1 (MEK1) (Homo sapiens, UniProt Q02750)
T29 construct: purchased Thermo Fisher Scientific SelectScreen (plus Nanosyn / Reaction Biology for CDK/cyclin lines)
Method in brief: as §1

[30] = target: T30, PDGFRA T674I (Homo sapiens, UniProt P16234, T674I)
T30 construct: purchased Thermo Fisher Scientific SelectScreen (plus Nanosyn / Reaction Biology for CDK/cyclin lines)
Method in brief: as §1

[31] = target: T31, JAK3 (Homo sapiens, UniProt P52333)
T31 construct: purchased Thermo Fisher Scientific SelectScreen (plus Nanosyn / Reaction Biology for CDK/cyclin lines)
Method in brief: as §1

[32] = target: T32, NEK2 (Homo sapiens, UniProt P51955)
T32 construct: purchased Thermo Fisher Scientific SelectScreen (plus Nanosyn / Reaction Biology for CDK/cyclin lines)
Method in brief: as §1

[33] = target: T33, MAPK12 (p38 gamma) (Homo sapiens, UniProt P53778)
T33 construct: purchased Thermo Fisher Scientific SelectScreen (plus Nanosyn / Reaction Biology for CDK/cyclin lines)
Method in brief: as §1

[34] = target: T34, SGK2 (Homo sapiens, UniProt Q9HBY8)
T34 construct: purchased Thermo Fisher Scientific SelectScreen (plus Nanosyn / Reaction Biology for CDK/cyclin lines)
Method in brief: as §1

[35] = target: T35, JAK2 JH1 JH2 (Homo sapiens, UniProt O60674)
T35 construct: JAK2 JH1 JH2; purchased Thermo Fisher Scientific SelectScreen (plus Nanosyn / Reaction Biology for CDK/cyclin lines)
Method in brief: as §1

[36] = target: T36, CDC42 BPB (MRCKB) (Homo sapiens, UniProt Q9Y5S2)
T36 construct: purchased Thermo Fisher Scientific SelectScreen (plus Nanosyn / Reaction Biology for CDK/cyclin lines)
Method in brief: as §1

[37] = target: T37, FES (FPS) (Homo sapiens, UniProt P07332)
T37 construct: purchased Thermo Fisher Scientific SelectScreen (plus Nanosyn / Reaction Biology for CDK/cyclin lines)
Method in brief: as §1

T24 sequence (P00533 25-1210 L858R): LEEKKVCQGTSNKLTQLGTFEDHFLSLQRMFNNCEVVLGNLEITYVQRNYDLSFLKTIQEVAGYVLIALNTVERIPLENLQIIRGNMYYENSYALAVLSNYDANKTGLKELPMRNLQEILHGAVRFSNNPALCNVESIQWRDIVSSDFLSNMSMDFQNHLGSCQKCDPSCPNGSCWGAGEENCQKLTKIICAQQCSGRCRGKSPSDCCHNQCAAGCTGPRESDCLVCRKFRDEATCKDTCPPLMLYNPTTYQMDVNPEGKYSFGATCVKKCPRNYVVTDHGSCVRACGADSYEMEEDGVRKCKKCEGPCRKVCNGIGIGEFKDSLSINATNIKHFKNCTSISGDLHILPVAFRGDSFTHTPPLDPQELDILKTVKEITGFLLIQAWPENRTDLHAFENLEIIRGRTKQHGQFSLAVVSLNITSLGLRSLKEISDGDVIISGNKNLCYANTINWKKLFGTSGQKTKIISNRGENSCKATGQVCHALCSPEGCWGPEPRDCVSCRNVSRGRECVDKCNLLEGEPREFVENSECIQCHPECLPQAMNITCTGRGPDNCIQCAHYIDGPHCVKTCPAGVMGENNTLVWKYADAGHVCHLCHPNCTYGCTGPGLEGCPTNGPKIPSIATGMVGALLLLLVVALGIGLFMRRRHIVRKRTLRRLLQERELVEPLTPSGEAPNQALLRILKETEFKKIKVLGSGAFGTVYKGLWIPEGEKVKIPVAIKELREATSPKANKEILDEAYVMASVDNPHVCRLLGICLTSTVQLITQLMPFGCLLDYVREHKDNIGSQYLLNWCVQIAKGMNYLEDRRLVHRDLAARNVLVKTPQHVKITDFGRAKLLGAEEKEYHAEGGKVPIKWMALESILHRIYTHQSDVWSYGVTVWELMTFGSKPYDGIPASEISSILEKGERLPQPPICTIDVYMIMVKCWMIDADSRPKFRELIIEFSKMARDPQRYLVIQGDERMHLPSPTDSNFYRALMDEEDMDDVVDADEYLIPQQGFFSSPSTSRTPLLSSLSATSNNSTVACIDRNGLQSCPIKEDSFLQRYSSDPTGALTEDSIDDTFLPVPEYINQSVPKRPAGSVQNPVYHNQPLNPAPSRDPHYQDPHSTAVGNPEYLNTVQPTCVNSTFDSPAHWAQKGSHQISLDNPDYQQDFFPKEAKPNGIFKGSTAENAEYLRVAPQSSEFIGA
T27 sequence (P21802 22-821): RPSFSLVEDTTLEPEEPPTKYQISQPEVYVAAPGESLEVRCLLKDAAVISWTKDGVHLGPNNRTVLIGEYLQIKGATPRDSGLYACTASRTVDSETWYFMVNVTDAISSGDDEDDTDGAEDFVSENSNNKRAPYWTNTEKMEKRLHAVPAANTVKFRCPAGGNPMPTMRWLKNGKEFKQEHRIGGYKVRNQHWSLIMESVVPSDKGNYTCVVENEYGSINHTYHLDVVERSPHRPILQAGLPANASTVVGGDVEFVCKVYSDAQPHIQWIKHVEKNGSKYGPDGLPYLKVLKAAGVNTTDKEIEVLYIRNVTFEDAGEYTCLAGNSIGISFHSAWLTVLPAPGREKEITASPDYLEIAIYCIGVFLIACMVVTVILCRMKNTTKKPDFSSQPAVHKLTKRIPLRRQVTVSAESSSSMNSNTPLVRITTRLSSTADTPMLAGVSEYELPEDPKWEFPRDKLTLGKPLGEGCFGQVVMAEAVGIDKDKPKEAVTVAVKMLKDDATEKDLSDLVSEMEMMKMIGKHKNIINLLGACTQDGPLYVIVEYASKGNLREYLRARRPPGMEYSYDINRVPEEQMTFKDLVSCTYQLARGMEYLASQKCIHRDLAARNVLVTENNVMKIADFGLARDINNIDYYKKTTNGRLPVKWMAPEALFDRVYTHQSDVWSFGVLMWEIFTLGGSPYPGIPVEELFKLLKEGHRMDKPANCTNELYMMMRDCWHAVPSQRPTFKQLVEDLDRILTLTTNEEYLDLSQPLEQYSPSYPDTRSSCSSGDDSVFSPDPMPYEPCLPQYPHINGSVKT
T28 sequence (P08631 whole entry): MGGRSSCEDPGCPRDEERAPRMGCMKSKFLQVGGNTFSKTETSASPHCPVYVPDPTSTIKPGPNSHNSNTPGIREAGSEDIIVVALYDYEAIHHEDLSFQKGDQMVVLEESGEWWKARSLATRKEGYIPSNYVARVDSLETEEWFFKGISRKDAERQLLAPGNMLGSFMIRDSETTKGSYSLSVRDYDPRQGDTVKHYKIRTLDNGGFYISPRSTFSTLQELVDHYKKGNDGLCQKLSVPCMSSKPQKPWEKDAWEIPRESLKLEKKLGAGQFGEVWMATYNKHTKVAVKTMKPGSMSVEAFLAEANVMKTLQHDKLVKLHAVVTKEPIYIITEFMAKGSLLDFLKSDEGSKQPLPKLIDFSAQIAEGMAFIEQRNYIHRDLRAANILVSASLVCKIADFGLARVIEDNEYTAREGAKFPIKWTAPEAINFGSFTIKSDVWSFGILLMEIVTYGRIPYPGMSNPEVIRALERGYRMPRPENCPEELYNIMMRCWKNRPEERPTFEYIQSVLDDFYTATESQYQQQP
T11 sequence (P07333 20-972): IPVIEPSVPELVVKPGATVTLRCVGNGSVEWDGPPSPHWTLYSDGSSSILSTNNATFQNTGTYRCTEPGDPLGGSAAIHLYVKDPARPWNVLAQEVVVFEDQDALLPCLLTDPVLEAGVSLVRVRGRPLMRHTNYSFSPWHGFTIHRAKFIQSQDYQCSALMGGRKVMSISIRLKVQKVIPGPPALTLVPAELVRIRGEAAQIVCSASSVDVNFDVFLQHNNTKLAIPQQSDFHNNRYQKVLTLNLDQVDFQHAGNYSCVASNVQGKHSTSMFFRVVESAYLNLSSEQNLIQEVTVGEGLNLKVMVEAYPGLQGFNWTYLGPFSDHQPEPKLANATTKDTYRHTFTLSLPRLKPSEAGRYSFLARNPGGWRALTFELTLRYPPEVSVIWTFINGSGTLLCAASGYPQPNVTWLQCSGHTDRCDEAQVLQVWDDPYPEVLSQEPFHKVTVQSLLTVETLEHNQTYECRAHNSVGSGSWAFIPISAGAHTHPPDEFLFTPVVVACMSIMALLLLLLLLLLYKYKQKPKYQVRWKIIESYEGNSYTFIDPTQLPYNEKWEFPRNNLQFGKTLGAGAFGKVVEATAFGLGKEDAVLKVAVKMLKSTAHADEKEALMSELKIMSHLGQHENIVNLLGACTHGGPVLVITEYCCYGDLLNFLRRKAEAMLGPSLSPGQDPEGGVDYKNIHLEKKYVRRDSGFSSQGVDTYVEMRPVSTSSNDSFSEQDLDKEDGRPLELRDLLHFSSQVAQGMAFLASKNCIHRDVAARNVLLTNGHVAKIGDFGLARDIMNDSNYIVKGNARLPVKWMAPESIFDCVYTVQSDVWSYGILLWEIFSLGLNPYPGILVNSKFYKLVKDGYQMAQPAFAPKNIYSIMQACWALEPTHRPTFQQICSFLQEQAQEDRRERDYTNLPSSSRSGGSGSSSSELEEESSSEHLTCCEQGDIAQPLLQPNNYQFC
T25 sequence (Q00537 whole entry): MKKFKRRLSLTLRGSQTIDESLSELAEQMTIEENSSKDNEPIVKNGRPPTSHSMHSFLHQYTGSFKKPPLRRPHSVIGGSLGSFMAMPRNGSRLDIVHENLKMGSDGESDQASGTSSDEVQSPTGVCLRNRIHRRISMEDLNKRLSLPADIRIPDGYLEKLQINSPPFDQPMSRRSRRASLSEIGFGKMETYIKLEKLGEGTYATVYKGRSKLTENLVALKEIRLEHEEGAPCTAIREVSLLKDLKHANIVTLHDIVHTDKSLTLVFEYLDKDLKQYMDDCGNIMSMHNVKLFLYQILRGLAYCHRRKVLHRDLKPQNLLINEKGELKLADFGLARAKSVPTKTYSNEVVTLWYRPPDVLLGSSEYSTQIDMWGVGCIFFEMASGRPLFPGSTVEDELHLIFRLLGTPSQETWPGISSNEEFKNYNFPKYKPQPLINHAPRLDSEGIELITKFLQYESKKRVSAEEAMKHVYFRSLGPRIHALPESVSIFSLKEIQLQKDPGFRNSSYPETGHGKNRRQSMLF
T25 sequence (Q8ND76 whole entry partner): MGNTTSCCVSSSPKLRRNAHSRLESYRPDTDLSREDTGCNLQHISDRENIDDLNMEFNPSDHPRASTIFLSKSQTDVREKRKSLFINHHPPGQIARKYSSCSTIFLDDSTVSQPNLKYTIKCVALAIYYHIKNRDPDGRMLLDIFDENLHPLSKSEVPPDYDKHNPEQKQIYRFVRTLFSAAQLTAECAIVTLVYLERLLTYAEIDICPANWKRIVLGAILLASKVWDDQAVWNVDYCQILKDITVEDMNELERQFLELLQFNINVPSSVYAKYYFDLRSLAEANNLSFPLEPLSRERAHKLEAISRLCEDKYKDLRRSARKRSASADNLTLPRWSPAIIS
T1 sequence (Q8NE63 whole entry): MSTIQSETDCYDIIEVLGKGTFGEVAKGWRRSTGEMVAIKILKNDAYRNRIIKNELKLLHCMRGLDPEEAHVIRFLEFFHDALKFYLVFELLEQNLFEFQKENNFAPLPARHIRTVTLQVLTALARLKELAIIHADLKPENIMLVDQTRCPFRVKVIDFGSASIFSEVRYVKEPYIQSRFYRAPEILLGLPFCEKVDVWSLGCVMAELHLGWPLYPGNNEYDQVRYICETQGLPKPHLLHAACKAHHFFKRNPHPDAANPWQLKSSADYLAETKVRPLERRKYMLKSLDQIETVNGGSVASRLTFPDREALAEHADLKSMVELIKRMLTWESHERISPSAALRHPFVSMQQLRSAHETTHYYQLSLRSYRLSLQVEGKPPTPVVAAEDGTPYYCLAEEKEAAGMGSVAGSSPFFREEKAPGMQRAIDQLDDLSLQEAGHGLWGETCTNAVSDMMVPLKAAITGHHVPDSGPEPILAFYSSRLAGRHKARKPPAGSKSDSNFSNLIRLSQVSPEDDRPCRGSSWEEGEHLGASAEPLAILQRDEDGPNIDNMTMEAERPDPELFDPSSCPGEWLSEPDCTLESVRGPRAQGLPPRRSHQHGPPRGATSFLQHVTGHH

Structure (SMILES): NS(=O)(=O)c1ccc(Nc2ncc3cc4n(c3n2)C2(CCCCC2)C(=O)NN4)cc1 [INX-315]
- inhibition at 0.1 µM [1]: 7%
- inhibition at 0.1 µM [2]: 2%
- inhibition at 0.1 µM [3]: 1%
- inhibition at 0.1 µM [4]: 4%
- inhibition at 0.1 µM [5]: 5%
- inhibition at 0.1 µM [6]: 7%
- inhibition at 0.1 µM [7]: 10%
- inhibition at 0.1 µM [8]: 13%
- inhibition at 0.1 µM [9]: 1%
- inhibition at 0.1 µM [10]: 1%
- inhibition at 0.1 µM [11]: 95%
- inhibition at 0.1 µM [12]: 11%
- inhibition at 0.1 µM [13]: 13%
- inhibition at 0.1 µM [14]: 17%
- inhibition at 0.1 µM [15]: 11%
- inhibition at 0.1 µM [16]: 9%
- inhibition at 0.1 µM [17]: 0%
- inhibition at 0.1 µM [18]: 8%
- inhibition at 0.1 µM [19]: 8%
- inhibition at 0.1 µM [20]: 9%
- inhibition at 0.1 µM [21]: -1%
- inhibition at 0.1 µM [22]: 38%
- inhibition at 0.1 µM [23]: 6%
- inhibition at 0.1 µM [24]: 1%
- inhibition at 0.1 µM [25]: 20%
- inhibition at 0.1 µM [26]: 24%
- inhibition at 0.1 µM [27]: 20%
- inhibition at 0.1 µM [28]: 10%
- inhibition at 0.1 µM [29]: 15%
- inhibition at 0.1 µM [30]: -1%
- inhibition at 0.1 µM [31]: 24%
- inhibition at 0.1 µM [32]: 3%
- inhibition at 0.1 µM [33]: 9%
- inhibition at 0.1 µM [34]: 5%
- inhibition at 0.1 µM [35]: 44%
- inhibition at 0.1 µM [36]: -1%
- inhibition at 0.1 µM [37]: 17%
